Results: the CheMixHub ionic liquid set
± gives the uncertainty stated by the source.

Test: xn = mol fraction of the nth substance listed

CC[n+]1ccn(C)c1C.F[B-](F)(F)F + CC(C)=O
viscosity [mPa·s], 101.3 kPa
Conditions | x1 = 0.02954 | x1 = 0.06403 | x1 = 0.1051 | x1 = 0.1544 | x1 = 0.215 | x1 = 0.2913 | x1 = 0.3887 | x1 = 0.5201
293.15 K | 0.42 ± 0.036 | 0.615 ± 0.052 | 0.797 ± 0.068 | 1.19 ± 0.1 | 1.82 ± 0.16 | 3.37 ± 0.29 | 7.01 ± 0.61 | 15.8 ± 1.3
298.15 K | 0.402 ± 0.034 | 0.59 ± 0.05 | 0.767 ± 0.065 | 1.119 ± 0.095 | 1.7 ± 0.15 | 3.09 ± 0.27 | 6.27 ± 0.55 | 13.2 ± 1.1
303.15 K | 0.384 ± 0.033 | 0.563 ± 0.048 | 0.726 ± 0.062 | 1.048 ± 0.089 | 1.59 ± 0.14 | 2.81 ± 0.24 | 5.66 ± 0.49 | 11.59 ± 0.99
308.15 K | 0.368 ± 0.031 | 0.54 ± 0.05 | 0.687 ± 0.058 | 0.986 ± 0.084 | 1.48 ± 0.13 | 2.57 ± 0.22 | 5.13 ± 0.44 | 10.2 ± 0.87
313.15 K | 0.354 ± 0.03 | 0.516 ± 0.044 | 0.652 ± 0.055 | 0.929 ± 0.079 | 1.38 ± 0.12 | 2.36 ± 0.2 | 4.67 ± 0.4 | 9.03 ± 0.77
318.15 K | 0.34 ± 0.029 | 0.496 ± 0.042 | 0.62 ± 0.053 | 0.874 ± 0.074 | 1.29 ± 0.11 | 2.16 ± 0.19 | 4.26 ± 0.37 | 8.14 ± 0.69
323.15 K | 0.327 ± 0.028 | 0.478 ± 0.04 | 0.588 ± 0.05 | 0.825 ± 0.07 | 1.22 ± 0.1 | 1.96 ± 0.17 | 3.91 ± 0.34 | 7.34 ± 0.63

CCCC[N+](CCCC)(CCCC)CCCC.[Cl-] + CC(C)C[C@H](N)C(=O)O
100 kPa
Conditions | electrical conductivity, 313.15 K [S/m] | electrical conductivity, 323.15 K [S/m] | electrical conductivity, 333.15 K [S/m] | electrical conductivity, 343.15 K [S/m] | electrical conductivity, 353.15 K [S/m] | viscosity, 313.15 K [mPa·s] | viscosity, 323.15 K [mPa·s] | viscosity, 333.15 K [mPa·s] | viscosity, 343.15 K [mPa·s] | viscosity, 353.15 K [mPa·s]
x1 = 0.8889 | 0.0188 | 0.0377 | 0.0631 | 0.0885 | 0.12 | 1070 ± 120 | 444 ± 47 | 219 ± 23 | 123 ± 12 | 76 ± 8
x1 = 0.9 | 0.0149 | 0.027 | 0.0441 | 0.068 | 0.0891 | 940 ± 100 | 517 ± 54 | 259 ± 27 | 146 ± 15 | 88.1 ± 8.9
x1 = 0.9091 | 0.0194 | 0.0302 | 0.054 | 0.0761 | 0.0971 | 890 ± 95 | 410 ± 43 | 197 ± 20 | 114 ± 12 | 99 ± 10
